Data: patent publication US20250034135A1, “ANTI-APOPTOTIC PROTEIN BCL-2 INHIBITOR, PHARMACEUTICAL COMPOSITION AND USES THEREOF” (HANGZHOU HEALZEN THERAPEUTICS CO., LTD., priority 2021, published 2025)

Biological target: BCL2 (Homo sapiens (Human), UniProt P10415)
Assay: Molecular level activity test of anti-apoptotic protein BCL2 (HTRF, binding to Bim peptide)
Settings: HTRF, binding of BCL2 to Bim peptide; read-out: BCL2 nM (inhibitory activity, IC50)
How it was run: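 Competition binding format: recombinant His-BCL2 and a biotin-Bim peptide are incubated with compound for 1 h, followed by 4 h at room temperature with HTRF detection antibodies.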

Chain of BCL2 (P10415 whole entry): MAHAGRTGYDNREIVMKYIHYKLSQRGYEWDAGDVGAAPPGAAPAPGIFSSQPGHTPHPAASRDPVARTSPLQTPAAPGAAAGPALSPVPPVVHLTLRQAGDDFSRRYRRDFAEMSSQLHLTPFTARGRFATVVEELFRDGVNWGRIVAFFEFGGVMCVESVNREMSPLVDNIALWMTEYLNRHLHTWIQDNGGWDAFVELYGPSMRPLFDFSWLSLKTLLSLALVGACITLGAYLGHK

Row | IC50 [nM] | Structure (SMILES)
1 | < 10 | CC(C)c1ccccc1[C@@H]1CCCN1C1CC2(CCN(c3ccc(C(=O)NS(=O)(=O)c4cc([N+](=O)[O-])c(NCC5(F)CCN(C(C)C)CC5)c5[nH]ccc45)c(Oc4cnc5[nH]ccc5c4)c3)CC2)C1 [compound 010, (S)-2-((1H-pyrrolo[2,3-b]pyrid-5-yl)oxy)-N-((7-(((4-fluoro-1-isopropylpiperid-4-yl)methyl)amino)-6-nitro-1H-indol-4-yl)sulfonyl)-4-(2-(2-(2-isopropylphenyl)pyrrolidin-1-yl)-7-azaspiro[3.5]non-7-yl)benzamide]
2 | < 10 | CC(C)c1ccccc1[C@@H]1CCCN1C1CC2(CCN(c3cc(Oc4cnc5[nH]ccc5c4)c(C(=O)NS(=O)(=O)c4cc([N+](=O)[O-])c(NCC5(F)CCOCC5)c5occc45)cc3F)CC2)C1 [compound 102, (S)-2-((1H-pyrrolo[2,3-b]pyrid-5-yl)oxy)-5-fluoro-N-((7-(((4-fluorotetrahydro-2H-pyran-4-yl)methyl)amino)-6-nitrobenzofuran-4-yl)sulfonyl)-4-(2-(2-(2-isopropylphenyl)pyrrolidin-1-yl)-7-azaspiro[3.5]non-7-yl)benzamide]
3 | < 10 | CC(C)c1ccccc1C1CN(C2CCOCC2)CCN1C1CC2(CCN(c3ccc(C(=O)NS(=O)(=O)c4cc([N+](=O)[O-])c(NC[C@H]5CC[C@](C)(O)CC5)c5[nH]cnc45)c(Oc4cnc5[nH]ccc5c4)c3)CC2)C1 (stereo partly drawn) [compound 043, 2-((1H-pyrrolo[2,3-b]pyrid-5-yl)oxy)-N-((7-((((1r,4r)-4-hydroxy-4-methylcyclohexyl)methyl)amino)-6-nitro-1H-benzo[d]imidazol-4-yl)sulfonyl)-4-(2-(2-(2-isopropylphenyl)-4-(tetrahydro-2H-pyran-4-yl)piperazin-1-yl)-7-azaspiro[3.5]non-7-yl)benzamide]
4 | < 10 | CC(C)c1ccccc1[C@@H]1CCCN1C1CC2(CCN(c3ccc(C(=O)NS(=O)(=O)c4cc([N+](=O)[O-])c(NC[C@H]5CC[C@](C)(O)CC5)c5[nH]cnc45)c(Oc4cnc5[nH]cc(F)c5c4)c3)CC2)C1 [compound 011, 2-((3-fluoro-1H-pyrrolo[2,3-b]pyrid-5-yl)oxy)-N-((7-((((1r,4r)-4-hydroxy-4-methylcyclohexyl)methyl)amino)-6-nitro-1H-benzo[d]imidazol-4-yl)sulfonyl)-4-(2-((S)-2-(2-isopropylphenyl)pyrrolidin-1-yl)-7-azaspiro[3.5]non-7-yl)benzamide]
5 | < 10 | COc1ccc(CN2CCN(C3CC4(CCN(c5cc(Oc6cnc7[nH]ccc7c6)c(C(=O)NS(=O)(=O)c6cc([N+](=O)[O-])c(NC[C@H]7CC[C@](C)(O)CC7)c7scnc67)cc5F)CC4)C3)[C@H](c3ccccc3C(C)C)C2)cc1 [compound 116, 2-((1H-pyrrolo[2,3-b]pyrid-5-yl)oxy)-5-fluoro-N-((7-((((1r, 4r)-4-hydroxy-4-methylcyclohexyl)methyl)amino)-6-nitrobenzo[d]thiazol-4-yl)sulfonyl)-4-(2-((R)-2-(2-isopropylphenyl)-4-(4-methoxybenzyl)piperazin-1-yl)-7-azaspiro[3.5]non-7-yl)benzamide]
6 | < 10 | COc1ccc(CN2CCN(C3CC4(CCN(c5cc(Oc6cnc7[nH]ccc7c6)c(C(=O)NS(=O)(=O)c6cc([N+](=O)[O-])c(NC[C@H]7CC[C@](C)(O)CC7)c7ocnc67)cc5F)CC4)C3)[C@H](c3ccccc3C(C)C)C2)cc1 [compound 114, 2-((1H-pyrrolo[2,3-b]pyrid-5-yl)oxy)-5-fluoro-N-((7-((((1r, 4r)-4-hydroxy-4-methylcyclohexyl)methyl)amino)-6-nitrobenzo[d]oxazol-4-yl)sulfonyl)-4-(2-((R)-2-(2-isopropylphenyl)-4-(4-methoxybenzyl)piperazin-1-yl)-7-azaspiro[3.5]non-7-yl)benzamide]
